These are literature values, as cited in patent US20100272830A1, “Biocide Combination for use in Agricultural Applications” (Industrie De Nora S.p.A., priority 2008, published 2010).

Where two headings read alike, the source gives them in different places.

As for `OCl` [Hypochlorous acid (HClO), Hypochlorous acid], the “HClO, % of total hypochlorite concentration” value is, setting by setting: (pH 5, 25° C.) 99.7%; (pH 6, 25° C.) 96.9%; (pH 7, 25° C.) 76.0%; (pH 8, 25° C.) 24%; (pH 9, 25° C.) 3.1%; (pH 10, 25° C.) 0.31%. The “HClO, % of total hypochlorite concentration” value is, setting by setting: (pH 11, 25° C.) 0.03%; (pH 12, 25° C.) 0.003%.
